Source: ChEMBL document CHEMBL1201862, “PubChem BioAssay data set” (2004)
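Exposure lasted 48 hours, with cells grown in 96-well plates and compounds tested at five concentrations. At the GI50, growth is halved.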 Activity calls are given as the source filed them. No stated cut-off is given here; in the data, active = GI50 up to about 1.1 µM and inactive = higher.

Legend:
Assay in all cases: inhibition of tumour cell growth, NCI panel, 48 h
[1] = test system: SN12C
[2] = test system: EKVX
[3] = test system: K562
[4] = test system: UACC-62
[5] = test system: SNB-19
[6] = test system: RPMI-8226
[7] = test system: NCI-H23
[8] = test system: UACC-257
[9] = test system: SNB-75
[10] = test system: RXF 393
[11] = test system: HCC 2998
[12] = test system: OVCAR-3
[13] = test system: KM12
[14] = test system: HCT-15
[15] = test system: HL-60
[16] = test system: SK-MEL-5
[17] = test system: SF-268
[18] = test system: SK-OV-3
[19] = test system: HOP-92

SMILES: CS(=O)(=O)NNS(=O)(=O)c1ccc(Cl)cc1
- GI50 [1]: > 100 µM (inactive)
- GI50 [2]: 76.4 µM (inactive)
- GI50 [3]: > 100 µM (inactive)
- GI50 [4]: > 100 µM (inactive)
- GI50 [5]: > 100 µM (inactive)
- GI50 [6]: > 100 µM (inactive)
- GI50 [7]: > 100 µM (inactive)
- GI50 [8]: > 100 µM (inactive)
- GI50 [9]: > 100 µM (inactive)
- GI50 [10]: 26.1 µM (inactive)
- GI50 [11]: > 100 µM (inactive)
- GI50 [12]: > 100 µM (inactive)
- GI50 [13]: > 100 µM (inactive)
- GI50 [14]: > 100 µM
- GI50 [15]: > 100 µM (inactive)
- GI50 [16]: > 100 µM (inactive)

SMILES: CN(C(=O)C1CCCCCC1=O)c1ccccc1Cl (centres undefined)
- GI50 [1]: > 100 µM (inactive)
- GI50 [2]: > 100 µM (inactive)
- GI50 [17]: > 100 µM (inactive)
- GI50 [18]: > 100 µM (inactive)
- GI50 [19]: > 100 µM (inactive)
- GI50 [5]: > 100 µM (inactive)
- GI50 [6]: > 100 µM (inactive)
- GI50 [7]: > 100 µM (inactive)
- GI50 [8]: > 100 µM (inactive)
- GI50 [9]: > 100 µM (inactive)
- GI50 [10]: > 100 µM (inactive)
- GI50 [12]: > 100 µM (inactive)
- GI50 [13]: > 100 µM (inactive)
- GI50 [14]: > 100 µM
- GI50 [16]: > 100 µM (inactive)

SMILES: COC(=N)c1csc(C2OC(CO)C(O)C2O)n1 (centres undefined)
- GI50 [1]: > 100 µM (inactive)
- GI50 [2]: > 100 µM (inactive)
- GI50 [3]: > 100 µM (inactive)
- GI50 [4]: > 100 µM (inactive)
- GI50 [17]: > 100 µM (inactive)
- GI50 [18]: > 100 µM (inactive)
- GI50 [19]: > 100 µM (inactive)
- GI50 [5]: > 100 µM (inactive)
- GI50 [6]: > 100 µM (inactive)
- GI50 [7]: > 100 µM (inactive)
- GI50 [8]: > 100 µM (inactive)
- GI50 [11]: > 100 µM (inactive)
- GI50 [12]: > 100 µM (inactive)
- GI50 [13]: > 100 µM (inactive)
- GI50 [14]: > 100 µM
- GI50 [15]: 38.5 µM (inactive)

SMILES: COc1ccc2c(c1)NC1(O)c3ccccc3C(=O)C21O (centres undefined)
- GI50 [1]: > 100 µM (inactive)
- GI50 [3]: > 100 µM (inactive)
- GI50 [4]: > 100 µM (inactive)
- GI50 [17]: > 100 µM (inactive)
- GI50 [18]: > 100 µM (inactive)
- GI50 [19]: > 100 µM (inactive)
- GI50 [5]: > 100 µM (inactive)
- GI50 [6]: > 100 µM (inactive)
- GI50 [7]: > 100 µM (inactive)
- GI50 [8]: > 100 µM (inactive)
- GI50 [9]: > 100 µM (inactive)
- GI50 [12]: > 100 µM (inactive)
- GI50 [13]: > 100 µM (inactive)
- GI50 [15]: > 100 µM (inactive)
- GI50 [16]: > 100 µM (inactive)

SMILES: CCCCC#COP(=O)(OCC)OCC
- GI50 [1]: > 100 µM (inactive)
- GI50 [2]: > 100 µM (inactive)
- GI50 [4]: > 100 µM (inactive)
- GI50 [17]: > 100 µM (inactive)
- GI50 [18]: > 100 µM (inactive)
- GI50 [5]: > 100 µM (inactive)
- GI50 [6]: > 100 µM (inactive)
- GI50 [7]: > 100 µM (inactive)
- GI50 [8]: > 100 µM (inactive)
- GI50 [11]: > 100 µM (inactive)
- GI50 [12]: > 100 µM (inactive)
- GI50 [13]: > 100 µM (inactive)
- GI50 [14]: > 100 µM
- GI50 [15]: > 100 µM (inactive)
- GI50 [16]: > 100 µM (inactive)

SMILES: Cc1[nH]c2ncn(N)c(=N)c2c1Cc1ccccc1
- GI50 [1]: > 100 µM (inactive)
- GI50 [2]: > 100 µM (inactive)
- GI50 [3]: > 100 µM (inactive)
- GI50 [4]: 58.1 µM (inactive)
- GI50 [18]: > 100 µM (inactive)
- GI50 [19]: 6.7 µM (inactive)
- GI50 [5]: > 100 µM (inactive)
- GI50 [6]: > 100 µM (inactive)
- GI50 [7]: > 100 µM (inactive)
- GI50 [8]: > 100 µM (inactive)
- GI50 [9]: 42.7 µM (inactive)
- GI50 [11]: > 100 µM (inactive)
- GI50 [12]: > 100 µM (inactive)
- GI50 [13]: > 100 µM (inactive)
- GI50 [14]: > 100 µM
- GI50 [15]: 17.8 µM (inactive)
- GI50 [16]: 19.1 µM (inactive)
